Legend:
Design in all cases: scale not given: the % may be the effect or the level left
[1] = target: Rhodopsin kinase GRK7 (Homo sapiens) (UniProt Q8WTQ7); test: Inhibition of DNA-tagged human GRK7 assessed as percent of control at 50000 nM by qPCR analysis relative to control
[2] = test system: Receptor-type tyrosine-protein kinase FLT3 (Homo sapiens), P36888 [K663Q]; test: Inhibition of DNA-tagged human FLT3 K663Q mutant assessed as percent of control at 50000 nM by qPCR analysis relative to control
[3] = target: Fibroblast growth factor receptor 4 (Homo sapiens) (UniProt P22455); test: Inhibition of DNA-tagged human FGFR4 assessed as percent of control at 50000 nM by qPCR analysis relative to control
[4] = target: Receptor tyrosine-protein kinase erbB-3 (Homo sapiens) (UniProt P21860); test: Inhibition of DNA-tagged human ERBB3 assessed as percent of control at 50000 nM by qPCR analysis relative to control
[5] = target: Ephrin type-B receptor 6 (Homo sapiens) (UniProt O15197); test: Inhibition of DNA-tagged human EPHB6 assessed as percent of control at 50000 nM by qPCR analysis relative to control
[6] = target: Ephrin type-B receptor 4 (Homo sapiens) (UniProt P54760); test: Inhibition of DNA-tagged human EPHB4 assessed as percent of control at 50000 nM by qPCR analysis relative to control
[7] = target: Ephrin type-A receptor 1 (Homo sapiens) (UniProt P21709); test: Inhibition of DNA-tagged human EPHA1 assessed as percent of control at 50000 nM by qPCR analysis relative to control
[8] = target: Discoidin domain-containing receptor 2 (Homo sapiens) (UniProt Q16832); test: Inhibition of DNA-tagged human DDR2 assessed as percent of control at 50000 nM by qPCR analysis relative to control
[9] = target: Serine/threonine-protein kinase DCLK3 (Homo sapiens) (UniProt Q9C098); test: Inhibition of DNA-tagged human DCAMKL3 assessed as percent of control at 50000 nM by qPCR analysis relative to control
[10] = target: Dual specificity protein kinase CLK3 (Homo sapiens) (UniProt P49761); test: Inhibition of DNA-tagged human CLK3 assessed as percent of control at 50000 nM by qPCR analysis relative to control
[11] = target: Cyclin-dependent kinase-like 2 (Homo sapiens) (UniProt Q92772); test: Inhibition of DNA-tagged human CDKL2 assessed as percent of control at 50000 nM by qPCR analysis relative to control
[12] = target: Tyrosine-protein kinase ABL1 (Homo sapiens) (UniProt P00519); test: Inhibition of DNA-tagged non-phosphorylated human ABL1 assessed as percent of control at 50000 nM by qPCR analysis relative to control
[13] = test system: Mast/stem cell growth factor receptor Kit (Homo sapiens), P10721 [V559D]; test: Inhibition of DNA-tagged human KIT V559D mutant assessed as percent of control at 50000 nM by qPCR analysis relative to control
[14] = test system: Mast/stem cell growth factor receptor Kit (Homo sapiens), P10721 [V559D,T670I]; test: Inhibition of DNA-tagged human KIT V559D/T670I double mutant assessed as percent of control at 50000 nM by qPCR analysis relative to control
[15] = target: Serine/threonine-protein kinase MRCK alpha (Homo sapiens) (UniProt Q5VT25); test: Inhibition of DNA-tagged human MRCKA assessed as percent of control at 50000 nM by qPCR analysis relative to control
[16] = target: Macrophage-stimulating protein receptor (Homo sapiens) (UniProt Q04912); test: Inhibition of DNA-tagged human MST1R assessed as percent of control at 50000 nM by qPCR analysis relative to control
[17] = target: Serine/threonine-protein kinase 26 (Homo sapiens) (UniProt Q9P289); test: Inhibition of DNA-tagged human MST4 assessed as percent of control at 50000 nM by qPCR analysis relative to control
[18] = target: Myosin light chain kinase, smooth muscle (Homo sapiens) (UniProt Q15746); test: Inhibition of DNA-tagged human MYLK assessed as percent of control at 50000 nM by qPCR analysis relative to control
[19] = target: Serine/threonine-protein kinase Nek5 (Homo sapiens) (UniProt Q6P3R8); test: Inhibition of DNA-tagged human NEK5 assessed as percent of control at 50000 nM by qPCR analysis relative to control
[20] = target: Serine/threonine-protein kinase Nek6 (Homo sapiens) (UniProt Q9HC98); test: Inhibition of DNA-tagged human NEK6 assessed as percent of control at 50000 nM by qPCR analysis relative to control
[21] = target: Cyclin-dependent kinase 18 (Homo sapiens) (UniProt Q07002); test: Inhibition of DNA-tagged human PCTK3 assessed as percent of control at 50000 nM by qPCR analysis relative to control
[22] = target: Membrane-associated tyrosine- and threonine-specific cdc2-inhibitory kinase (Homo sapiens) (UniProt Q99640); test: Inhibition of DNA-tagged human PKMYT1 assessed as percent of control at 50000 nM by qPCR analysis relative to control
[23] = target: Receptor-interacting serine/threonine-protein kinase 1 (Homo sapiens) (UniProt Q13546); test: Inhibition of DNA-tagged human RIPK1 assessed as percent of control at 50000 nM by qPCR analysis relative to control
[24] = target: STE20/SPS1-related proline-alanine-rich protein kinase (Homo sapiens) (UniProt Q9UEW8); test: Inhibition of DNA-tagged human STK39 assessed as percent of control at 50000 nM by qPCR analysis relative to control
[25] = target: Non-receptor tyrosine-protein kinase TNK1 (Homo sapiens) (UniProt Q13470); test: Inhibition of DNA-tagged human TNK1 assessed as percent of control at 50000 nM by qPCR analysis relative to control
[26] = target: Dual specificity protein kinase TTK (Homo sapiens) (UniProt P33981); test: Inhibition of DNA-tagged human TTK assessed as percent of control at 50000 nM by qPCR analysis relative to control
[27] = target: Non-receptor tyrosine-protein kinase TYK2 (Homo sapiens) (UniProt P29597); test: Inhibition of DNA-tagged human TYK2 JH1 catalytic domain assessed as percent of control at 50000 nM by qPCR analysis relative to control
[28] = target: Serine/threonine-protein kinase ULK3 (Homo sapiens) (UniProt Q6PHR2); test: Inhibition of DNA-tagged human ULK3 assessed as percent of control at 50000 nM by qPCR analysis relative to control
[29] = target: Mitogen-activated protein kinase kinase kinase 20 (Homo sapiens) (UniProt Q9NYL2); test: Inhibition of DNA-tagged human ZAK assessed as percent of control at 50000 nM by qPCR analysis relative to control

Receptor tyrosine-protein kinase erbB-3 (Homo sapiens), sequence (P21860 whole entry): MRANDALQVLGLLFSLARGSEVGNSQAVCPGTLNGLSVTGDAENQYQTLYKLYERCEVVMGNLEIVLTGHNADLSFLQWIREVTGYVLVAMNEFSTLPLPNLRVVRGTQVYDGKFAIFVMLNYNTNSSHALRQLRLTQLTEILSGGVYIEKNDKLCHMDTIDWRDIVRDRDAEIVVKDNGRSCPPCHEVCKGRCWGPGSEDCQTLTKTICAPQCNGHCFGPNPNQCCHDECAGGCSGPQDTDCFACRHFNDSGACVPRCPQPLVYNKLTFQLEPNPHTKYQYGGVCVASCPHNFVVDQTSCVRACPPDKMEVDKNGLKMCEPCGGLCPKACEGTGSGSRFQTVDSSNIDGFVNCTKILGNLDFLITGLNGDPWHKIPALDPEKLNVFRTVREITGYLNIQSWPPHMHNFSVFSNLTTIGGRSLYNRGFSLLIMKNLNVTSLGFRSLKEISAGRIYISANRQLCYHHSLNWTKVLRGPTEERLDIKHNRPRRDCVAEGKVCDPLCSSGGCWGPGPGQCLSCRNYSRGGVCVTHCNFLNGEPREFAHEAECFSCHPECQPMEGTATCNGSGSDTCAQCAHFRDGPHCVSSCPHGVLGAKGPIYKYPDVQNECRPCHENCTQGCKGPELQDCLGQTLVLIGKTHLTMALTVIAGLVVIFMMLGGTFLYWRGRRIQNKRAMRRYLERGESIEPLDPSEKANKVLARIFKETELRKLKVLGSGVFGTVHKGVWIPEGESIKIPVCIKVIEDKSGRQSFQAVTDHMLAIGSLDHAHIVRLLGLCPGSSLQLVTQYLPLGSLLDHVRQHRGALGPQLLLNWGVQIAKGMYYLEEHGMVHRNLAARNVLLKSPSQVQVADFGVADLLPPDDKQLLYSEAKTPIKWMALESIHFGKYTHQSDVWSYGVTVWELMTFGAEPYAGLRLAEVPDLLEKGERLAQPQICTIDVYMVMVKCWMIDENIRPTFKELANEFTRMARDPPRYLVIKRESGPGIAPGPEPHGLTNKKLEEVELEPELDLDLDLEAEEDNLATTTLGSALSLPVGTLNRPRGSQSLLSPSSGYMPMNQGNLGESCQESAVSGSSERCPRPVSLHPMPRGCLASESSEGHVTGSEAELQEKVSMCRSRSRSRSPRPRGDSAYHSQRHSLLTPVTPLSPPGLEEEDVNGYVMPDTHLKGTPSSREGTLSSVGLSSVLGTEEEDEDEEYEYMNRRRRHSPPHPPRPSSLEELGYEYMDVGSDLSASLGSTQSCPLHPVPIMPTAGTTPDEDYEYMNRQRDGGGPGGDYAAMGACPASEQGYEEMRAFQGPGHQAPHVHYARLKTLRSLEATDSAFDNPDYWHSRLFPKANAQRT
Non-receptor tyrosine-protein kinase TYK2 (Homo sapiens), sequence (P29597 whole entry, the tested form may be a part): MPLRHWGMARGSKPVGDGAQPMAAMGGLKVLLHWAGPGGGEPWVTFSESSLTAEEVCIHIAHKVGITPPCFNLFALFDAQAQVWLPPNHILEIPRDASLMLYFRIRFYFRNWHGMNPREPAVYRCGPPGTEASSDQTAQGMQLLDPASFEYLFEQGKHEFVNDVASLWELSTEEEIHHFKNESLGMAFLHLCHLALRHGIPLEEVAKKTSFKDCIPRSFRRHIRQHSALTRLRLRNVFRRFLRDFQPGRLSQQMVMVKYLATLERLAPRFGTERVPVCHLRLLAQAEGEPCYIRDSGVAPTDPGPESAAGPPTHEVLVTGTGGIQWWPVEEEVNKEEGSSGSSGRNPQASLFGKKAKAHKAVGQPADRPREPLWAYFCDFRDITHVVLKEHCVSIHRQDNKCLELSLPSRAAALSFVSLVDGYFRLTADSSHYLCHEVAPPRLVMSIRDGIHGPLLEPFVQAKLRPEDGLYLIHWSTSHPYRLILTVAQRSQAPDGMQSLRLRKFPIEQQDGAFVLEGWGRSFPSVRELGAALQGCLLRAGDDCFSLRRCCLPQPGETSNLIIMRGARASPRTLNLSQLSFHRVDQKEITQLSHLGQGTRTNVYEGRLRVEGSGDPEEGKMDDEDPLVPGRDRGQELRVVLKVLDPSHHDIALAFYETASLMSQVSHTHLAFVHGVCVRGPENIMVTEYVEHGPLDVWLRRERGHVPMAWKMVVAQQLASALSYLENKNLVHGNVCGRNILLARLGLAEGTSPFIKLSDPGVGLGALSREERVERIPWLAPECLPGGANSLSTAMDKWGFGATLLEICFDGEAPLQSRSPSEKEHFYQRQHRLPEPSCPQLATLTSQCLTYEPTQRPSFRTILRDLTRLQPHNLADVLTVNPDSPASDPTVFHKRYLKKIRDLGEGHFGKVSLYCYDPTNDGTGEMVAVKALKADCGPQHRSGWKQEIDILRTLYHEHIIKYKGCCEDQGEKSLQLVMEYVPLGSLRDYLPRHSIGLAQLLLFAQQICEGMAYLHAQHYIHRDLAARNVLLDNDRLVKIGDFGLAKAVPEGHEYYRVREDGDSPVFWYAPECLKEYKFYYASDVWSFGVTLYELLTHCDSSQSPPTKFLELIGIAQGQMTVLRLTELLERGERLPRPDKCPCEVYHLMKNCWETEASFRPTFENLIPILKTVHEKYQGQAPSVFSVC
Cyclin-dependent kinase 18 (Homo sapiens), sequence (Q07002 whole entry): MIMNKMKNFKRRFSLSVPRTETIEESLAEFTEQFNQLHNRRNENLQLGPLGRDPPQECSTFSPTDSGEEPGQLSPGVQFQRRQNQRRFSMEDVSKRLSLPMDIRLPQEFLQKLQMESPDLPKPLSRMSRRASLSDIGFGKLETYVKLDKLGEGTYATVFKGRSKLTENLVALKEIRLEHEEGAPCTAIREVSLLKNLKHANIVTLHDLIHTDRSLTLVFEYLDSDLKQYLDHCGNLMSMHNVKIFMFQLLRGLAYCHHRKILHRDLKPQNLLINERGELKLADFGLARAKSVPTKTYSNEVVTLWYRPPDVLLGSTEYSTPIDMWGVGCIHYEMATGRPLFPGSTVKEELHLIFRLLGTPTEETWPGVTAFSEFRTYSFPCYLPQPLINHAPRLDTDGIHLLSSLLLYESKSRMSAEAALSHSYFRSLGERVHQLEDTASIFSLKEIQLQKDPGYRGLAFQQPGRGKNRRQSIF
Discoidin domain-containing receptor 2 (Homo sapiens), sequence (Q16832 whole entry, the tested form may be a part): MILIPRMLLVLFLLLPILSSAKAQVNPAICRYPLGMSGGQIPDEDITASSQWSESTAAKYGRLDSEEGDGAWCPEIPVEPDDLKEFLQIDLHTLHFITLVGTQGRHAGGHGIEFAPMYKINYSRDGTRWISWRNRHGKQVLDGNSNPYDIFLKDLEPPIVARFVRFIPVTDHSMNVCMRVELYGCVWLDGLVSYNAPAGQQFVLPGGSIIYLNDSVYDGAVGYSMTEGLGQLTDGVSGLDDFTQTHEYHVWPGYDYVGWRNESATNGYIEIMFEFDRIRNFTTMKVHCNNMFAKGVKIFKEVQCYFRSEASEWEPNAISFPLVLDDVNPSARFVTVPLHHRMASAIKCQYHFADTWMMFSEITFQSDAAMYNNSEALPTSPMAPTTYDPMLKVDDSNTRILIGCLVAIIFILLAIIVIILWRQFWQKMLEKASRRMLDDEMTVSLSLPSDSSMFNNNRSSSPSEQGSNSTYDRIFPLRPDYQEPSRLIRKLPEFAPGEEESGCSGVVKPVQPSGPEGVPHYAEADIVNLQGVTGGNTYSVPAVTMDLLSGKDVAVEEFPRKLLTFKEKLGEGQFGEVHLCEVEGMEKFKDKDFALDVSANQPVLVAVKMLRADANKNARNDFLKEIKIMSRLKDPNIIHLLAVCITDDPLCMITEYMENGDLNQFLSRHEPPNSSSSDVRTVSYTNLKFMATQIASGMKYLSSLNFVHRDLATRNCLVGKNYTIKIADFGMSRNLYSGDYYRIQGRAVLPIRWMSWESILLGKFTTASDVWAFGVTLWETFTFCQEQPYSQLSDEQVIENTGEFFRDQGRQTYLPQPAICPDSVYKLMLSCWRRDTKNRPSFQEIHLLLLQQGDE
Mast/stem cell growth factor receptor Kit (Homo sapiens), P10721 [V559D], sequence (P10721 whole entry V559D): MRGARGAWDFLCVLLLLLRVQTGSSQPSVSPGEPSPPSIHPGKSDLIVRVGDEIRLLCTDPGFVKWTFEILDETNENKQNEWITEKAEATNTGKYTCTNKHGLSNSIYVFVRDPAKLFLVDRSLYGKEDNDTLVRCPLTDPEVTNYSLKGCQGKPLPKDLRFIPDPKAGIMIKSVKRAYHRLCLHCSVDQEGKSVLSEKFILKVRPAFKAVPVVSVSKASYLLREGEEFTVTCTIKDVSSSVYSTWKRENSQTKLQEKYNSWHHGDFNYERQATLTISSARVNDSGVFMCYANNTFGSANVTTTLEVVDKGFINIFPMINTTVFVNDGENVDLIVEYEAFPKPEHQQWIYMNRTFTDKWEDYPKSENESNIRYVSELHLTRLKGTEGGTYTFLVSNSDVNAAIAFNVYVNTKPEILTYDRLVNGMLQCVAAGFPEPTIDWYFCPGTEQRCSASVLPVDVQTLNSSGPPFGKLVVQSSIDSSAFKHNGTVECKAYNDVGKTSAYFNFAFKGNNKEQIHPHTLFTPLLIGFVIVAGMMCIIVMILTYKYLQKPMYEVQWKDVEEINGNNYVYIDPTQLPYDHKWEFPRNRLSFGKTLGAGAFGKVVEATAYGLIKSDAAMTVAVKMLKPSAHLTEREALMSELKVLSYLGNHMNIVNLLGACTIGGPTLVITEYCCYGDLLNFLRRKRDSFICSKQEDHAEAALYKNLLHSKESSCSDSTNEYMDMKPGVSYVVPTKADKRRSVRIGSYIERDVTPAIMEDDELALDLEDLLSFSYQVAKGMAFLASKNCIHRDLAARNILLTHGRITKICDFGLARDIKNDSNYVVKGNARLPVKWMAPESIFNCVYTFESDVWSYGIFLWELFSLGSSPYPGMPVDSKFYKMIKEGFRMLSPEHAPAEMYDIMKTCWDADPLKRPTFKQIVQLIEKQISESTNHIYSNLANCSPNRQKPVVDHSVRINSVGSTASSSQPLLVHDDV
Mast/stem cell growth factor receptor Kit (Homo sapiens), P10721 [V559D,T670I], sequence (P10721 whole entry V559D/T670I): as the sequence (P10721 whole entry V559D) above, with T670I counted along it

Question: Which Activity [1] does the source give for `CN1C(=O)/C(=C2/C(=O)Nc3ccccc32)c2ccccc21` here?
Answer: 100%

Question: What about the Activity [2] of the same molecule?
Answer: 91%

Question: And the Activity [3]?
Answer: 100%

Question: And the Activity [4]?
Answer: 51%

Question: And the Activity [5]?
Answer: 89%

Question: What about the Activity [6] of the same molecule?
Answer: 98%

Question: What about the Activity [7] of the same molecule?
Answer: 100%

Question: And the Activity [8]?
Answer: 86%

Question: What about the Activity [9] of the same molecule?
Answer: 99%

Question: What about the Activity [10] of the same molecule?
Answer: 100%

Question: And the Activity [11]?
Answer: 100%

Question: What about the Activity [12] of the same molecule?
Answer: 100%

Question: And the Activity [13]?
Answer: 91%

Question: And the Activity [14]?
Answer: 93%

Question: What about the Activity [15] of the same molecule?
Answer: 92%

Question: And the Activity [16]?
Answer: 92%

Question: And the Activity [17]?
Answer: 100%

Question: And the Activity [18]?
Answer: 82%

Question: And the Activity [19]?
Answer: 96%

Question: And the Activity [20]?
Answer: 81%

Question: What about the Activity [21] of the same molecule?
Answer: 84%

Question: And the Activity [22]?
Answer: 100%

Question: And the Activity [23]?
Answer: 95%

Question: What about the Activity [24] of the same molecule?
Answer: 78%

Question: And the Activity [25]?
Answer: 98%

Question: What about the Activity [26] of the same molecule?
Answer: 88%

Question: What about the Activity [27] of the same molecule?
Answer: 77%

Question: What about the Activity [28] of the same molecule?
Answer: 85%

Question: And the Activity [29]?
Answer: 80%

— ChEMBL document CHEMBL4804284
